Test results reported in patent US20250144067A1, “PERSONALIZED STARVATION THERAPY FOR CANCER” (Faeth Therapeutics, Inc., priority 2021, published 2025).
Structures can show the parent of a compound that is named as a salt. Where two headings read alike, the source gives them in different places.

Legend:
[1] = test system: NCI-H292 lung cancer cells; test: FDA drug screening, complete media vs cholesterol-free media without statin (TABLE 1); format: cell-based, human
[2] = test system: NCI-H292 lung cancer cells; test: FDA drug screening, complete media vs cholesterol-free media with simvastatin (TABLE 2); format: cell-based, human
[3] = Complete minus Cholesterol-free, greater than 0 enhanced anti-cancer activity, about 0 neutral, below 0 antagonists
[4] = NCI-H292 cells in cholesterol-free media without statin
[5] = NCI-H292 cells in complete media
[6] = NCI-H292 cells, FDA drug library screen, cholesterol-free media with simvastatin 0.04 μM
[7] = NCI-H292 cells, FDA drug library screen, complete media
[8] = complete media vs cholesterol-free media + simvastatin (0.04 μM), >0 enhanced anti-cancer activity, about 0 neutral, <0 antagonist
[9] = NCI-H292 cells, cholesterol-free media without statin
[10] = complete vs cholesterol-free media, greater than 0 enhanced anti-cancer activity, about 0 neutral, below 0 antagonists
[11] = complete media minus cholesterol-free media + simvastatin, >0 enhanced anti-cancer activity, about 0 neutral, <0 antagonist
[12] = Complete minus Cholesterol-free, greater than 0 enhanced anti-cancer activity, about 0 neutral, below 0 antagonist
[13] = NCI-H292 cells, FDA drug library screen, cholesterol-free media without statin
[14] = NCI-H292 cells, FDA library drug in cholesterol-free media with simvastatin 0.04 μM
[15] = NCI-H292 cells, FDA library drug in complete media
[16] = Complete minus Cholesterol-free, >0 enhanced anti-cancer activity, about 0 neutral, <0 antagonist
[17] = NCI-H292 cells, cholesterol-free media without statin, FDA drug library screen
[18] = NCI-H292 cells, complete media, FDA drug library screen

Compound: CCCc1nn(C)c2c(=O)[nH]c(-c3cc(S(=O)(=O)N4CCN(C)CC4)ccc3OCC)nc12 [Sildenafil]
- Difference [1, 3]: −0.63
- Cholesterol-free [1, 4]: 1.66
- Complete [1, 5]: 1.034
- Cholesterol-free media + simvastatin (0.04 μM) [2, 6]: 1.23
- Complete Media [2, 7]: 1.131
- Difference [2, 8]: −0.10

Compound: C/C=C/C1=C(C(=O)O)N2C(=O)[C@@H](NC(=O)[C@H](N)c3ccc(O)cc3)[C@H]2SC1.O [Cefprozil (monohydrate)]
- Cholesterol-free [1, 9]: 1.442
- Complete ([1]; NCI-H292 cells, complete media): 1.109
- Difference [1, 10]: −0.33
- Cholesterol-free media + simvastatin (0.04 μM) [2, 6]: 0.9773
- Complete Media [2, 7]: 1.216
- Difference [2, 11]: 0.24

Compound: Cc1nnc(C(=O)NC(C)(C)c2nc(C(=O)NCc3ccc(F)cc3)c(O)c(=O)n2C)o1 [Raltegravir]
- Cholesterol-free [1]: 1.135
- Complete [1]: 0.9505
- Difference [1]: −0.18
- Cholesterol-free media + simvastatin (0.04 μM) [2]: 1.209
- Complete Media [2]: 1.119
- Difference [2]: −0.09

Compound: N[C@@H](Cc1c[nH]c2ccc(O)cc12)C(=O)O [L-5-Hydroxytryptophan]
- Difference [1, 12]: −0.10
- Cholesterol-free [1, 13]: 1.028
- Complete [1, 7]: 0.9245
- Cholesterol-free media + simvastatin (0.04 μM) [2, 6]: 1.408
- Complete Media [2, 7]: 1.327
- Difference [2, 8]: −0.08

Compound: Cc1cccc(C(C)c2cnc[nH]2)c1C (stereo not drawn) [Medetomidine (hydrochloride)]
- Cholesterol-free [1, 9]: 1.452
- Complete ([1]; NCI-H292 cells, complete media): 1.139
- Difference [1, 10]: −0.31
- Cholesterol-free media + simvastatin (0.04 μM) ([2]; NCI-H292 cells, cholesterol-free media with simvastatin 0.04 μM, cell growth value in FDA drug screen): 0.8752
- Complete Media ([2]; NCI-H292 cells, complete media, cell growth value in FDA drug screen): 0.9447
- Difference [2, 11]: 0.07

Compound: CNC(=O)CN(CCN(CCN(CC(=O)[O-])CC(=O)NC)CC(=O)[O-])CC(=O)[O-].O.[Gd+3] [Gadodiamide (hydrate)]
- Difference ([1]; Complete minus Cholesterol-free, […]): −0.65
- Cholesterol-free [1, 4]: 1.387
- Complete [1, 5]: 0.7342
- Cholesterol-free media + simvastatin (0.04 μM) [2, 6]: 1.113
- Complete Media [2, 7]: 0.9905
- Difference ([2]; complete media vs cholesterol-free media + simvastatin (0.04 μM), […]): −0.12

Compound: O=C(CCCc1ccccc1)OCC(COC(=O)CCCc1ccccc1)OC(=O)CCCc1ccccc1 [Glycerol phenylbutyrate]
- Difference [1, 12]: −0.17
- Cholesterol-free [1, 13]: 1.054
- Complete [1, 7]: 0.8817
- Cholesterol-free media + simvastatin (0.04 μM) [2, 14]: 1.737
- Complete Media [2, 15]: 1.34
- Difference [2, 8]: −0.40

Compound: Cc1ccc(S(=O)(=O)NC(=O)NN2CC3CCCC3C2)cc1 (stereo not drawn) [Gliclazide]
- Difference [1, 16]: 0.04
- Cholesterol-free [1, 17]: 1.079
- Complete [1, 18]: 1.122
- Cholesterol-free media + simvastatin (0.04 μM) [2, 14]: 1.233
- Complete Media [2, 15]: 0.9583
- Difference [2, 8]: −0.28

Compound: Carbinoxamine maleate salt
- Difference [1, 16]: −0.20
- Cholesterol-free [1, 9]: 1.129
- Complete ([1]; NCI-H292 cells, complete media): 0.9247
- Cholesterol-free media + simvastatin (0.04 μM) [2, 6]: 0.757
- Complete Media [2, 7]: 1.12
- Difference [2, 11]: 0.36

Compound: CO[C@@H]1[C@H](N(C)C(=O)c2ccccc2)C[C@H]2O[C@]1(C)n1c3ccccc3c3c4c(c5c6ccccc6n2c5c31)C(=O)NC4 [Midostaurin]
- Difference [1, 16]: 0.06
- Cholesterol-free [1, 17]: 0.3336
- Complete [1, 18]: 0.3958
- Cholesterol-free media + simvastatin (0.04 μM) [2, 6]: 0.6712
- Complete Media [2, 7]: 0.5312
- Difference [2, 8]: −0.14

Compound: COc1ccc(C(=O)CC(=O)c2ccc(C(C)(C)C)cc2)cc1 [Avobenzone]
- Difference [1, 3]: −0.48
- Cholesterol-free [1, 4]: 1.457
- Complete [1, 5]: 0.9767
- Cholesterol-free media + simvastatin (0.04 μM) [2, 6]: 1.07
- Complete Media [2, 7]: 0.9672
- Difference [2, 8]: −0.10

Compound: COc1cc(NS(=O)(=O)c2ccc(N)cc2)nc(OC)n1 [Sulfadimethoxine]
- Cholesterol-free [1, 9]: 1.234
- Complete ([1]; NCI-H292 cells, complete media): 0.8763
- Difference [1, 10]: −0.36
- Cholesterol-free media + simvastatin (0.04 μM) [2, 6]: 0.819
- Complete Media [2, 7]: 0.9685
- Difference [2, 11]: 0.15

Compound: CC(C)C[C@H](NC(=O)[C@@H](O)[C@H](N)Cc1ccccc1)C(=O)O [Bestatin]
- Cholesterol-free [1, 9]: 1.255
- Complete ([1]; NCI-H292 cells, complete media): 0.8191
- Difference [1, 10]: −0.44
- Cholesterol-free media + simvastatin (0.04 μM) [2, 14]: 1.263
- Complete Media [2, 15]: 0.9917
- Difference [2, 8]: −0.27

Compound: OCc1ccc(O[C@@H]2O[C@H](CO)[C@@H](O)[C@H](O)[C@H]2O)cc1 [Gastrodin]
- Cholesterol-free [1]: 1.466
- Complete [1]: 1.162
- Difference [1]: −0.30
- Cholesterol-free media + simvastatin (0.04 μM) [2]: 1.131
- Complete Media [2]: 1.355
- Difference [2]: 0.22
